# Test system: 677734-321-R-J1-PDC complex spheroid viability
# Assay: Anticancer human tumor 677734-321-R-J1-PDC patient-derived soft tissue sarcoma cell line growth inhibition [POLQ]
# Details: for IC50: curve of first compound; for viability, T/C: stronger effect = lower value
# How it was run: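 Patient-derived tumour cells were co-cultured with HUVEC and mesenchymal stem cells as multicellular spheroids at 37 °C. They were treated with POLQ inhibitors (novobiocin, ART-558, RP6685) alone or combined with other agents. Top concentrations were at or near clinical Cmax (otherwise 10 microM; SN-38 at 1 microM), decreasing in half-log steps.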
# 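Note: spheroids exposed to compounds for one week.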
# 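Throughout, for viability, T/C: 100% = vehicle DMSO treated spheroids.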
smiles,measurement,setting,value
CC(=O)O[C@H]1C(=O)[C@@]2(C)[C@H]([C@H](OC(=O)c3ccccc3)[C@]3(O)C[C@H](OC(=O)[C@H](O)[C@@H](NC(=O)c4ccccc4)c4ccccc4)C(C)=C1C3(C)C)[C@]1(OC(C)=O)CO[C@@H]1C[C@@H]2O + Cc1cccc(N(C)C(=O)C2C(O)CCN2c2nc(C)cc(C(F)(F)F)c2C#N)c1,IC50,second compound 0.0316 µM,< 9.49 nM
same,IC50,second compound 0.1 µM,< 9.49 nM
same,IC50,second compound 0.316 µM,< 9.49 nM
same,IC50,second compound 1 µM,< 9.49 nM
same,IC50,second compound 3.16 µM,< 9.49 nM
same,IC50,second compound 10 µM,< 9.49 nM
same,"viability, T/C","second compound 0.0316 µM, first compound 0.00949 µM",21.8%
same,"viability, T/C","second compound 0.0316 µM, first compound 0.03 µM",14.4%
same,"viability, T/C","second compound 0.0316 µM, first compound 0.0949 µM",14.1%
same,"viability, T/C","second compound 0.0316 µM, first compound 0.3 µM",12.6%
same,"viability, T/C","second compound 0.0316 µM, first compound 0.949 µM",10.9%
same,"viability, T/C","second compound 0.0316 µM, first compound 3 µM",12.8%
same,"viability, T/C","second compound 0.1 µM, first compound 0.00949 µM",23.7%
same,"viability, T/C","second compound 0.1 µM, first compound 0.03 µM",16.1%
same,"viability, T/C","second compound 0.1 µM, first compound 0.0949 µM",13.6%
same,"viability, T/C","second compound 0.1 µM, first compound 0.3 µM",13.3%
same,"viability, T/C","second compound 0.1 µM, first compound 0.949 µM",13.5%
same,"viability, T/C","second compound 0.1 µM, first compound 3 µM",15.6%
same,"viability, T/C","second compound 0.316 µM, first compound 0.00949 µM",22.8%
same,"viability, T/C","second compound 0.316 µM, first compound 0.03 µM",18.9%
same,"viability, T/C","second compound 0.316 µM, first compound 0.0949 µM",12.4%
same,"viability, T/C","second compound 0.316 µM, first compound 0.3 µM",10.3%
same,"viability, T/C","second compound 0.316 µM, first compound 0.949 µM",12.4%
same,"viability, T/C","second compound 0.316 µM, first compound 3 µM",13.9%
same,"viability, T/C","second compound 1 µM, first compound 0.00949 µM",26%
same,"viability, T/C","second compound 1 µM, first compound 0.03 µM",23.1%
same,"viability, T/C","second compound 1 µM, first compound 0.0949 µM",14%
same,"viability, T/C","second compound 1 µM, first compound 0.3 µM",11.4%
same,"viability, T/C","second compound 1 µM, first compound 0.949 µM",9.6%
same,"viability, T/C","second compound 1 µM, first compound 3 µM",9.4%
same,"viability, T/C","second compound 3.16 µM, first compound 0.00949 µM",23.6%
same,"viability, T/C","second compound 3.16 µM, first compound 0.03 µM",13.4%
same,"viability, T/C","second compound 3.16 µM, first compound 0.0949 µM",12.2%
same,"viability, T/C","second compound 3.16 µM, first compound 0.3 µM",12.8%
same,"viability, T/C","second compound 3.16 µM, first compound 0.949 µM",12%
same,"viability, T/C","second compound 3.16 µM, first compound 3 µM",14.6%
same,"viability, T/C","second compound 10 µM, first compound 0.00949 µM",27.3%
same,"viability, T/C","second compound 10 µM, first compound 0.03 µM",12.4%
same,"viability, T/C","second compound 10 µM, first compound 0.0949 µM",12.2%
same,"viability, T/C","second compound 10 µM, first compound 0.3 µM",14.5%
same,"viability, T/C","second compound 10 µM, first compound 0.949 µM",11.3%
same,"viability, T/C","second compound 10 µM, first compound 3 µM",11.4%
CC[C@@]1(O)C(=O)OCc2c1cc1n(c2=O)Cc2cc3c(CN(C)C)c(O)ccc3nc2-1 + Cc1cccc(N(C)C(=O)C2C(O)CCN2c2nc(C)cc(C(F)(F)F)c2C#N)c1,IC50,second compound 0.0316 µM,26.2 nM
same,IC50,second compound 0.1 µM,26.2 nM
same,IC50,second compound 0.316 µM,23 nM
same,IC50,second compound 1 µM,27.5 nM
same,IC50,second compound 3.16 µM,24.3 nM
same,IC50,second compound 10 µM,25.3 nM
same,"viability, T/C","second compound 0.0316 µM, first compound 0.000316 µM",104%
same,"viability, T/C","second compound 0.0316 µM, first compound 0.001 µM",105%
same,"viability, T/C","second compound 0.0316 µM, first compound 0.00316 µM",102%
same,"viability, T/C","second compound 0.0316 µM, first compound 0.01 µM",102%
same,"viability, T/C","second compound 0.0316 µM, first compound 0.0316 µM",39.4%
same,"viability, T/C","second compound 0.0316 µM, first compound 0.1 µM",15.8%
same,"viability, T/C","second compound 0.1 µM, first compound 0.000316 µM",103%
same,"viability, T/C","second compound 0.1 µM, first compound 0.001 µM",113%
same,"viability, T/C","second compound 0.1 µM, first compound 0.00316 µM",108%
same,"viability, T/C","second compound 0.1 µM, first compound 0.01 µM",99.9%
same,"viability, T/C","second compound 0.1 µM, first compound 0.0316 µM",40.2%
same,"viability, T/C","second compound 0.1 µM, first compound 0.1 µM",21.1%
same,"viability, T/C","second compound 0.316 µM, first compound 0.000316 µM",112%
same,"viability, T/C","second compound 0.316 µM, first compound 0.001 µM",112%
same,"viability, T/C","second compound 0.316 µM, first compound 0.00316 µM",100%
same,"viability, T/C","second compound 0.316 µM, first compound 0.01 µM",91.3%
same,"viability, T/C","second compound 0.316 µM, first compound 0.0316 µM",34.1%
same,"viability, T/C","second compound 0.316 µM, first compound 0.1 µM",17.8%
same,"viability, T/C","second compound 1 µM, first compound 0.000316 µM",124%
same,"viability, T/C","second compound 1 µM, first compound 0.001 µM",96.4%
same,"viability, T/C","second compound 1 µM, first compound 0.00316 µM",105%
same,"viability, T/C","second compound 1 µM, first compound 0.01 µM",100%
same,"viability, T/C","second compound 1 µM, first compound 0.0316 µM",42.2%
same,"viability, T/C","second compound 1 µM, first compound 0.1 µM",17.6%
same,"viability, T/C","second compound 3.16 µM, first compound 0.000316 µM",120%
same,"viability, T/C","second compound 3.16 µM, first compound 0.001 µM",100%
same,"viability, T/C","second compound 3.16 µM, first compound 0.00316 µM",109%
same,"viability, T/C","second compound 3.16 µM, first compound 0.01 µM",94.1%
same,"viability, T/C","second compound 3.16 µM, first compound 0.0316 µM",37%
same,"viability, T/C","second compound 3.16 µM, first compound 0.1 µM",17.5%
same,"viability, T/C","second compound 10 µM, first compound 0.000316 µM",108%
same,"viability, T/C","second compound 10 µM, first compound 0.001 µM",100%
same,"viability, T/C","second compound 10 µM, first compound 0.00316 µM",98.2%
same,"viability, T/C","second compound 10 µM, first compound 0.01 µM",91.9%
same,"viability, T/C","second compound 10 µM, first compound 0.0316 µM",39.8%
same,"viability, T/C","second compound 10 µM, first compound 0.1 µM",23.2%

# From PubChem BioAssay AID1963842 (Molecular Pharmacology Branch, DTP, NCI, 2024)
